This series can be described thus: gradient 5% acetonitrile 3 min, to 50% in 2 min, to 85% in 15 min, held 3 min, 100 µL/min. The note with it: column: Zorbax Extend-C18 2.1 x 50 mm; eluents: water / acetonitrile, 0.1% formic acid. In short, it runs like this:
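Retention times of pure standards were taken from adduct peaks that were selected by computer and manually inspected. Over 3 months, mixtures of ~100 molecules were run by HPLC–quadrupole time-of-flight mass spectrometry in positive and negative ionization mode. The Zorbax Extend-C18 column (2.1 × 50 mm, 1.8 μm) ran at 100 μL/min in water and acetonitrile, each containing 0.1% formic acid, with 40 μL dead volume and 900 μL dwell volume.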
Regarding `COc1cccc(-c2nnc(Cc3nc(-c4cccc(Cl)c4)no3)o2)c1`, the RP-LC retention time was determined as 1090 s.
Next, `CCc1noc(NC(C)=O)c1-c1ccc(OC)c(S(=O)(=O)Nc2ccc(OC)cc2)c1`: 749 s; `COc1ccc(OCC(=O)Nc2ccc3c(c2)N(C(=O)c2ccco2)CCC3)cc1`: 861 s.
With `CCOCCCNC(=O)Cn1c(=O)c2cccn2c2ccc(F)cc21` the figure was 712 s; with `O=C(CSc1nnnn1-c1ccccc1)NCCc1ccc2c(c1)OCCO2`, 745 s.
The compound `CCOc1ccc(CNC(=O)c2cnc(N3CCSCC3)nc2N)cc1` returned an RP-LC retention time of 716 s.
Next, `CC(=O)Nc1ccc(NC(=O)Cn2cccc(-c3nc(-c4ccc(Cl)cc4)no3)c2=O)cc1`: 937 s; `CCOC(=O)c1c(NCc2ccccc2Cl)c2cccc(Cl)c2[nH]c1=O`: 867 s.
With `Clc1ccc(Cl)c(-c2ccc(CNCc3ccncc3)o2)c1` the figure was 664 s; with `Cn1cc(S(=O)(=O)N2CCC(C(=O)Nc3cccc(F)c3)CC2)cc1C(=O)N1CCCC1`, 772 s.
With `CC(=O)Nc1ccc2c(c1)nc(CN1CCOCC1)n2C(C)C` the figure was 579 s; with `COc1ccc(Cc2noc(Cc3nnc(-c4cccc(Cl)c4)o3)n2)cc1`, 1010 s; with `O=C(Cn1ccc2ccn(Cc3ccccc3)c2c1=O)NCc1ccccc1Cl`, 888 s.
`O=C([C@@H]1C[C@H](Oc2ccccc2)CN1C(=O)C1CC=CC1)N1CCCC1` showed an RP-LC retention time of 759 s.
`Cc1nc2cc(-c3noc(-c4ccco4)n3)ccc2n(C2CCCC2)c1=O` had an RP-LC retention time of 927 s.
`CCNc1cc(N2CCCC(CCC(=O)NCCN3CCCCCC3)C2)ncn1` (stereo not given): the RP-LC retention time came out at 550 s.
Next, `COc1cc(C(=O)N2CC(=O)Nc3ccc(F)cc3C2c2ccccc2)cc(OC)c1OC` (stereo not given): 906 s; `CCn1cc(-c2nc(CC(=O)NCc3cccc(Cl)c3)cs2)c2cccnc21`: 903 s; `O=C(c1ccccc1)c1ccc[nH]1`: 842 s.
With `COc1ccccc1CNC(=O)C1CCCN1S(=O)(=O)c1cc2c(cc1C)NC(=O)C(C)O2` (stereo not given) the figure was 757 s.
Next, `CCCc1nc(-c2ccccc2)oc1CC(=O)N1CCN(c2ccccc2F)CC1`: 1090 s.
`CC(=O)Nc1ccc(-c2noc(C3CCN(C(=O)Cc4c[nH]c5ccccc45)CC3)n2)cc1` had an RP-LC retention time of 761 s.
Next, `Cc1ccc(CCNC(=O)CN2C(=O)CSc3cccn3-c3ccccc32)cc1`: 965 s.
With `CCOC(=O)C1CCC(CNC(=O)N2CCN(Cc3nc4cc(C)ccc4o3)CC2)CC1` (stereo not given) the figure was 735 s; with `CCOc1ncccc1CNC(=O)Cc1ccsc1`, 771 s; with `CC1OC(Oc2c(-c3cc(O)c(O)c(O)c3)oc3cc(O)cc(O)c3c2=O)C(O)C(O)C1O` (stereo not given), 651 s.
`O=C(Nc1cc(-c2ccsc2)no1)C1(c2ccccc2)CC1` returned an RP-LC retention time of 1030 s.
Next, `CCCCNC(=O)c1cn(CCC)nc1S(=O)(=O)N1CCN(c2ccccc2OCC)CC1`: 1140 s; `Cc1cc(C(=O)Nc2nc3c(F)cccc3s2)no1`: 780 s; `COCCNC(=O)NCc1ccc2c(c1)N(C(=O)c1ccc(C)cc1)CC2`: 723 s.
Next, `COc1ccc(-c2ncc3c(=O)n(CC(=O)Nc4cc(OC)cc(OC)c4)cnc3n2)cc1`: 854 s; `Cn1c(N2CCC(C(=O)Nc3ccc(Cl)cc3)CC2)cc(=O)n(C)c1=O`: 732 s.
Next, `COC(=O)c1cn(CC(=O)Nc2cc(F)ccc2F)c2nc(C)ccc2c1=O`: 727 s.
In turn, `COc1cc(OC)cc(C(=O)Nc2ccc(N3CCN(C4CCCCC4)C3=O)nc2)c1` came in with an RP-LC retention time of 889 s.
With `Cn1cc(C(=O)NCc2ccccc2)c(S(=O)(=O)N2CCSCC2)n1` the figure was 834 s.
As to `COc1ccc(-c2nc3cnccn3c2Nc2ccccc2OC)cc1`, the RP-LC retention time was 863 s.
Take `COc1ccc(CC(=O)N2CCn3c(C)nnc3C2)cc1OC`: the RP-LC retention time was 579 s.
Next, `COc1cccc(C(=O)NC2(C(F)(F)F)C(=O)N(CC3CCCO3)C3=C2C(=O)CC(C)(C)C3)c1` (stereo not given): 922 s; `O=C(c1ccoc1)N1CCC(N2CC(F)(F)C[C@H]2CO)CC1`: 539 s; `COc1ccc(NC(=O)CCNc2cnc3cnccn23)c(C)c1`: 576 s.
With `O=C(NC1CC1)C1CCN(S(=O)(=O)c2ccc(-c3noc(C4CC4)n3)cc2)CC1` the figure was 803 s; with `Cc1occc1C(=O)N1CC(F)(F)C[C@H]1c1nc(C2CC2)no1`, 726 s; with `CC1(C(=O)NCc2ccccc2)CN(S(=O)(=O)c2ccccc2)CC(=O)N1c1ccc(F)cc1` (stereo not given), 914 s.
Next, `COCCCn1c(=O)c2ccccc2n(Cc2nc(-c3ccc(OC(C)C)cc3)no2)c1=O`: 1120 s; `Cc1ccc(CN2CCN(CC(=O)N3CCC4(CC3)OCCO4)C(=O)C2=O)cc1`: 653 s; `CCc1ccc(N2C(=O)CN(S(C)(=O)=O)CC2(C)C(=O)NCc2ccccc2)cc1` (stereo not given): 809 s.
In turn, `Cc1cc(C(=O)NCc2ccccn2)c2cc(Br)ccc2n1` displayed an RP-LC retention time of 591 s.
Next, `CC1CCC(NC(=O)C2CCN(S(=O)(=O)c3ccc4c(c3)NC(=O)C(C)O4)CC2)CC1` (stereo not given): 876 s; `O=C([C@@H]1C[C@H](F)CN1C(=O)C1(c2ccccc2)CC1)N1CCOCC1`: 639 s; `O=C(C1CCCC1)N1CCC(c2noc(-c3ccncc3)n2)C1` (stereo not given): 863 s.
Next, `CC1CSc2ccc(S(=O)(=O)N3CCN(c4ccccn4)CC3)cc2NC1=O` (stereo not given): 647 s; `O=C(NCc1ccco1)C1CCN(c2cc(N3CCSCC3)ncn2)CC1`: 620 s.
`Cn1ncc2c3ccccc3n(CC(=O)NCc3ccc4c(c3)OCO4)c2c1=O`: the RP-LC retention time came to 792 s.
`CC(C)Cn1cc(CCNC(=O)c2cc(F)ccc2F)c2cccnc21` displayed an RP-LC retention time of 868 s.
With `Cc1cccc(-c2nn3c(N4CCN(c5ccccn5)CC4)cc(C)nc3c2C)c1` the figure was 648 s.
With `Cn1nccc1-c1cccc(-c2noc(CNC(=O)c3ccco3)n2)c1` the figure was 733 s; with `NC(=O)c1cc2cc(Br)ccc2[nH]1`, 719 s; with `Cc1nc(NC(=O)c2ccccc2)nc2cc3c(cc12)OCO3`, 688 s.
With `Cc1cc(Cl)ccc1OCc1nc(-c2cccc(-c3ccn[nH]3)c2)no1` the figure was 1090 s; with `Cc1ccccc1CNC(=O)Cn1c(=O)c2nncn2c2ncccc21`, 662 s.
Take `Cc1ccc(C)c(NS(=O)(=O)c2cc3n(c2)CCN(CC(C)C)C3=O)c1`: the RP-LC retention time came out at 848 s.
With `CCn1c(CCc2ccccc2NS(=O)(=O)c2cc(F)ccc2F)nc2ccccc21` the figure was 764 s; with `CCc1nc(N)n(CC(=O)NCc2ccc(F)cc2F)c(=O)c1C`, 632 s.
Compound `CCOc1ccccc1CNC(=O)C1CCN(S(=O)(=O)c2cn(CC)cn2)CC1` returned an RP-LC retention time of 739 s.
Next, `Cc1cc(NC(=O)c2[nH]c(C)c(S(=O)(=O)N3CCCCC3)c2C)ccc1Br`: 1110 s.
For the compound `CCN1CCN(C(=O)C2CCN(S(=O)(=O)c3ccc4c(c3)sc(=O)n4C)CC2)CC1`, the RP-LC retention time turned out to be 551 s.
`O=C(NCc1cccs1)c1ccc(Cn2ccnc2)cc1` yielded an RP-LC retention time of 809 s.
With `O=C(Cc1csc(NC(=O)Nc2cccc(Cl)c2)n1)Nc1ccccc1` the figure was 924 s; with `CCOC(=O)c1csc(NC(=O)c2sc3ccccc3c2Cl)n1`, 999 s.
Next, `Cc1cc(C)cc(C(=O)N2CCC(n3c(-c4ccoc4)nc4cccnc43)C2)c1` (stereo not given): 804 s; `CC(C)c1nc(N(C)Cc2ccccc2)ncc1C(=O)O`: 1030 s.
Compound `CCOc1ccc(CNC(=O)c2ccc3c(c2)N(C)C(=O)C2CCCCN32)cc1OC` (stereo not given) returned an RP-LC retention time of 774 s.
Next, `Cc1ccc(C(=O)NCc2nc(-c3ccc4c(c3)ncn4C)no2)cc1`: 634 s.
With `Cc1cc(N2CCN(C(=O)C3CCCCC3)CC2)nc(N2CCCC2)n1` the figure was 672 s; with `CC(CCNc1ccc(-c2nc(-c3cccc(F)c3)no2)cn1)N1CCCCCC1` (stereo not given), 782 s; with `COc1ccc(N2CCN(C(=O)C3CCCN(S(=O)(=O)c4cn(C(C)C)cn4)C3)CC2)cc1` (stereo not given), 723 s.
Next, `CN1C(=O)c2ccccc2Oc2ccc(C(=O)N3CCCCCC3)cc21`: 846 s.
The compound `O=c1ccc(-c2ccc(Cl)cc2)nn1CCCNS(=O)(=O)Cc1ccccc1` had an RP-LC retention time of 579 s.
The compound `Cn1cc(SCC(=O)Nc2ccccc2C(F)(F)F)c2ccccc21` came in with an RP-LC retention time of 967 s.
Next, `Cn1cccc1CN(Cc1cccs1)C(=O)Cn1c(=O)oc2ccccc21`: 899 s.

Values taken from the METLIN SMRT retention time set (Domingo-Almenara et al. 2019).
